Patent US8440710B2, “HSL inhibitors useful in the treatment of diabetes” (Hoffmann-La Roche Inc., priority 2009, dated 2013)

These molecules were tested against T1, human HSL (Homo sapiens, UniProt Q05469) (assay: Human Hormone-Sensitive Lipase (HSL) enzyme inhibition assay (colorimetric, DMPT substrate)). Conditions: human full length HSL-His6, 2,3-dimercapto-1-propanol tributyrate substrate, 37° C. 20 minutes, absorbance at 405 nm; read-out: HSL hum IC50.
T1 construct: generate a full length human HSL ORF with a 3′-His6 tag; made in house; host or cells: High 5 insect cells (baculovirus, pFast-BAC)
T1 sequence (Q05469 1-1076): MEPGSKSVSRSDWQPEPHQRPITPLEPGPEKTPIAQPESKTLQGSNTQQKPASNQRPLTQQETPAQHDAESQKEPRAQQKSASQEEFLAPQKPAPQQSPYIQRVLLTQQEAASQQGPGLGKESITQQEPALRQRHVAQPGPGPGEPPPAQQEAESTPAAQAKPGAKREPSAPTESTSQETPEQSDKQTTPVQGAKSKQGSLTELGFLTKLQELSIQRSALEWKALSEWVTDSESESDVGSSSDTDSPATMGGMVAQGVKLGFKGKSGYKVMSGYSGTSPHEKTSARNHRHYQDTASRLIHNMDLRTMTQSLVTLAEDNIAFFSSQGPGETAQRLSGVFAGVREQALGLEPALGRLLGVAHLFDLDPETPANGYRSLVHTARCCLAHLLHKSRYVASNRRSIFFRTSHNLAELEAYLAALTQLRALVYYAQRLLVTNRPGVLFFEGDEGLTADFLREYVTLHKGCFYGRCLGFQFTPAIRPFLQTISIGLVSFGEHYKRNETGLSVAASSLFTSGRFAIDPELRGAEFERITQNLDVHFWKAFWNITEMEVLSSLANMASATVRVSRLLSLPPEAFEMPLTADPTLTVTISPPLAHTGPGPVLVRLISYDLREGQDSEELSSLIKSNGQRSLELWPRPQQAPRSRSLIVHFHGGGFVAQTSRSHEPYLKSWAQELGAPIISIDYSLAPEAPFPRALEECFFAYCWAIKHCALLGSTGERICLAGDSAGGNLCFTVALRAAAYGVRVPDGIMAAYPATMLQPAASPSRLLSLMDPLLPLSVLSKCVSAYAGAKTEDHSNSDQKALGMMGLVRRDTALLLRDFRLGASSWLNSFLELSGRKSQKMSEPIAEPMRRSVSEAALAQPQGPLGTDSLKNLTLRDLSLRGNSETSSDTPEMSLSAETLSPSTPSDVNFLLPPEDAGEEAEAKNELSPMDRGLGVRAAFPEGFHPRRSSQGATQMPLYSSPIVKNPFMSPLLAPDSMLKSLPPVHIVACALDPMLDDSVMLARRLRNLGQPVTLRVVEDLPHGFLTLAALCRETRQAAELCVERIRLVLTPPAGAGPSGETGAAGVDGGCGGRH
Assay type: biochemical
In short: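 Full-length human HSL with C-terminal His6, expressed in baculovirus-infected High 5 cells and Ni-NTA purified, was added (15 ug/ml stock) to 1.5 mM DMPT in 100 mM MOPS pH 7.2, 0.2 mg/ml fatty acid-free BSA containing compound. After 20 min at 37 °C, DTNB with SDS/Triton X-100 was added; A405 read after 15 min at RT.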

| Structure (SMILES) | IC50 [nM] |
| --- | --- |
| COC[C@]1(O)CC[C@]2(CCN(c3ccc(C4CC(F)(F)C4)cc3)C2=O)CC1 [Example 342, (5α,8α)-2-[4-(3,3-Difluoro-cyclobutyl)-phenyl]-8-hydroxy-8-methoxymethyl-2-aza-spiro[4.5]decan-1-one] | 30 |
| CC(C)C(O)[C@H]1CC[C@@]2(CCN(c3ccc(C(C)(C)C)cc3)C2=O)CC1 (stereo partly drawn) [Example 355, (5α,8β)-2-(4-tert-Butyl-phenyl)-8-(1-hydroxy-2-methyl-propyl)-2-aza-spiro[4.5]decan-1-one] | 50 |
| CC(C)C(O)[C@H]1CC[C@]2(CCN(c3ccc(C(C)(C)C)cc3)C2=O)CC1 (stereo partly drawn) [Example 356] | 100 |
| CC(O)C1CCC2(CC1)CCN(c1ccc(C(C)(C)C)cc1)C2=O (stereo not drawn) [Example 357, (5α,8β)-2-(4-tert-Butyl-phenyl)-8-(1-hydroxy-ethyl)-2-aza-spiro[4.5]decan-1-one] | 50 |
| CC(O)C1CCC2(CC1)CCN(c1ccc(C(C)(C)C)cc1)C2=O (stereo not drawn) [Example 358, (5α,8α)-2-(4-tert-Butyl-phenyl)-8-(1-hydroxy-ethyl)-2-aza-spiro[4.5]decan-1-one] | 50 |
| CC(C)(C)c1ccc(N2CCC3(CCC(C(O)(O)C(F)(F)F)CC3)C2=O)cc1 (stereo not drawn) [Example 362, 2-(4-tert-Butyl-phenyl)-8-(2,2,2-trifluoro-1,1-dihydroxy-ethyl)-2-aza-spiro[4.5]decan-1-one] | 10 |
| CCC(O)[C@H]1CC[C@@]2(CCN(c3ccc(O[C@H](C)C(F)(F)F)cc3)C2=O)CC1 (stereo partly drawn) [Example 365, (5α,8β)-8-(1-Hydroxy-propyl)-2-[4-((R)-2,2,2-trifluoro-1-methyl-ethoxy)-phenyl]-2-aza-spiro[4.5]decan-1-one] | 50 |
| CCC(O)[C@H]1CC[C@]2(CCN(c3ccc(O[C@H](C)C(F)(F)F)cc3)C2=O)CC1 (stereo partly drawn) [Example 366, (5α,8α)-8-(1-Hydroxy-propyl)-2-[4-((R)-2,2,2-trifluoro-1-methyl-ethoxy)-phenyl]-2-aza-spiro[4.5]decan-1-one] | 290 |
| O=C1CCCN1C[C@]1(O)CC[C@]2(CCN(c3ccc(OCC(F)(F)F)cc3)C2=O)CC1 [Example 367, (5α,8α)-8-Hydroxy-8-(2-oxo-pyrrolidin-1-ylmethyl)-2-[4-(2,2,2-trifluoro-ethoxy)-phenyl]-2-aza-spiro[4.5]decan-1-one] | 80 |
| O=C1CCCCN1C[C@]1(O)CC[C@]2(CCN(c3ccc(OCC(F)(F)F)cc3)C2=O)CC1 [Example 368, (5α,8α)-8-Hydroxy-8-(2-oxo-piperidin-1-ylmethyl)-2-[4-(2,2,2-trifluoro-ethoxy)-phenyl]-2-aza-spiro[4.5]decan-1-one] | 80 |
| O=c1ccccn1C[C@]1(O)CC[C@]2(CCN(c3ccc(OCC(F)(F)F)cc3)C2=O)CC1 [Example 369, (5α,8α)-8-Hydroxy-8-(2-oxo-2H-pyridin-1-ylmethyl)-2-[4-(2,2,2-trifluoro-ethoxy)-phenyl]-2-aza-spiro[4.5]decan-1-one] | 20 |
| CO[C@H](c1ccc(N2CC[C@]3(CC[C@@](O)(COCC(F)(F)F)CC3)C2=O)cc1)C(F)(F)F [Example 372, (5α,8α)-8-Hydroxy-8-(2,2,2-trifluoro-ethoxymethyl)-2-[4-((R)-2,2,2-trifluoro-1-methoxy-ethyl)-phenyl]-2-aza-spiro[4.5]decan-1-one] | 17 |
| CCc1ccc(CCN2CC[C@]3(CC[C@@](O)(COC)CC3)C2=O)cc1 [Example 373, (5α,8α)-2-[2-(4-Ethyl-phenyl)-ethyl]-8-hydroxy-8-methoxymethyl-2-aza-spiro[4.5]decan-1-one] | 70 |

The next lines start with the values.

| IC50 [nM] | Structure (SMILES) |
| --- | --- |
| 20 | CCC[C@]1(O)CC[C@]2(CCN(c3ccc(C(C)(C)C)cc3)C2=O)CC1 [Example 343, (5α,8α)-2-(4-tert-Butyl-phenyl)-8-hydroxy-8-propyl-2-aza-spiro[4.5]decan-1-one] |
| 10 | CC(C)[C@]1(O)CC[C@]2(CCN(c3ccc(C(C)(C)C)cc3)C2=O)CC1 [Example 344, (5α,8α)-2-(4-tert-Butyl-phenyl)-8-hydroxy-8-isopropyl-2-aza-spiro[4.5]decan-1-one] |
| 20 | CC(C)(C)c1ccc(N2CC[C@]3(CC[C@@](O)(C(F)(F)F)CC3)C2=O)cc1 [Example 345, (5α,8α)-2-(4-tert-Butyl-phenyl)-8-hydroxy-8-trifluoromethyl-2-aza-spiro[4.5]decan-1-one] |
| 20 | COC[C@]1(O)CC[C@]2(CCN(c3ccc(C(C)(C)C)cc3)C2=O)CC1 [Example 346, (5α,8α)-2-(4-tert-Butyl-phenyl)-8-hydroxy-8-methoxymethyl-2-aza-spiro[4.5]decan-1-one] |
| 10 | CC(C)(C)c1ccc(N2CC[C@]3(CC[C@@](O)(COCC(F)(F)F)CC3)C2=O)cc1 [Example 347, (5α,8α)-2-(4-tert-Butyl-phenyl)-8-hydroxy-8-(2,2,2-trifluoro-ethoxymethyl)-2-aza-spiro[4.5]decan-1-one] |
| 10 | CCOC[C@]1(O)CC[C@]2(CCN(c3ccc(C(C)(C)C)cc3)C2=O)CC1 [Example 348, (5α,8α)-2-(4-tert-Butyl-phenyl)-8-ethoxymethyl-8-hydroxy-2-aza-spiro[4.5]decan-1-one] |
| 10 | CC(C)OC[C@]1(O)CC[C@]2(CCN(c3ccc(C(C)(C)C)cc3)C2=O)CC1 [Example 349, (5α,8α)-2-(4-tert-Butyl-phenyl)-8-hydroxy-8-isopropoxymethyl-2-aza-spiro[4.5]decan-1-one] |
| 10 | CC(C)(C)c1ccc(N2CC[C@]3(CC[C@@](O)(CN4CCCC4=O)CC3)C2=O)cc1 [Example 350, (5α,8α)-2-(4-tert-Butyl-phenyl)-8-hydroxy-8-(2-oxo-pyrrolidin-1-ylmethyl)-2-aza-spiro[4.5]decan-1-one] |
| 10 | CC(C)(C)c1ccc(N2CC[C@]3(CC[C@@](O)(CN4CCCCC4=O)CC3)C2=O)cc1 [Example 351, (5α,8α)-2-(4-tert-Butyl-phenyl)-8-hydroxy-8-(2-oxo-piperidin-1-ylmethyl)-2-aza-spiro[4.5]decan-1-one] |
| 30 | CC(C)(C)c1ccc(N2CCC3(CCC(O)(COc4ccccn4)CC3)C2=O)cc1 (stereo not drawn) [Example 352, (5α,8α)-2-(4-tert-Butyl-phenyl)-8-hydroxy-8-(pyridin-2-yloxymethyl)-2-aza-spiro[4.5]decan-1-one] |
| 10 | CC(C)(C)c1ccc(N2CCC3(CCC(O)(Cn4ccccc4=O)CC3)C2=O)cc1 (stereo not drawn) [Example 353, (5α,8α)-2-(4-tert-Butyl-phenyl)-8-hydroxy-8-(2-oxo-2H-pyridin-1-ylmethyl)-2-aza-spiro[4.5]decan-1-one] |
| 50 | CC(C)(C)c1ccc(N2CC[C@]3(CC[C@@](O)(COc4cccnc4)CC3)C2=O)cc1 [Example 354, (5α,8α)-2-(4-tert-Butyl-phenyl)-8-hydroxy-8-(pyridin-3-yloxymethyl)-2-aza-spiro[4.5]decan-1-one] |
| 30 | CCC(O)[C@H]1CC[C@@]2(CCN(c3ccc(C(C)(C)C)cc3)C2=O)CC1 (stereo partly drawn) [Example 359, (5α,8β)-2-(4-tert-Butyl-phenyl)-8-(1-hydroxy-propyl)-2-aza-spiro[4.5]decan-1-one] |
| 30 | CC(C)(C)c1ccc(N2CC[C@]3(CC[C@@H](C(O)c4ccn[nH]4)CC3)C2=O)cc1 (stereo partly drawn) [Example 363, (5α,8β)-2-(4-tert-Butyl-phenyl)-8-[hydroxy-(2H-pyrazol-3-yl)-methyl]-2-aza-spiro[4.5]decan-1-one] |
| 10 | CC(C)(C)c1ccc(N2CC[C@]3(CC[C@@H](Cc4ccn[nH]4)CC3)C2=O)cc1 [Example 364, (5α,8β)-2-(4-tert-Butyl-phenyl)-8-(2H-pyrazol-3-ylmethyl)-2-aza-spiro[4.5]decan-1-one] |
| 80 | O=c1ccccn1C[C@]1(O)CC[C@@]2(CCN(c3ccc(OCC(F)(F)F)cc3)C2=O)CC1 [Example 370, (5α,8β)-8-Hydroxy-8-(2-oxo-2H-pyridin-1-ylmethyl)-2-[4-(2,2,2-trifluoro-ethoxy)-phenyl]-2-aza-spiro[4.5]decan-1-one] |
| 20 | O=C1N(c2ccc(OCC(F)(F)F)cc2)CC[C@]12CC[C@@](O)(COc1ccccn1)CC2 [Example 371, (5α,8α)-8-Hydroxy-8-(pyridin-2-yloxymethyl)-2-[4-(2,2,2-trifluoro-ethoxy)-phenyl]-2-aza-spiro[4.5]decan-1-one] |
